Structures can show the parent of a compound that is named as a salt.
Key:
5-HT1A = molecular target: T1, 5-HT1A (Homo sapiens, UniProt P08908); assay: radioligand competition binding, [3H]8-OH-DPAT
T1 construct: Eurofins
T1 sequence (P08908 1-422): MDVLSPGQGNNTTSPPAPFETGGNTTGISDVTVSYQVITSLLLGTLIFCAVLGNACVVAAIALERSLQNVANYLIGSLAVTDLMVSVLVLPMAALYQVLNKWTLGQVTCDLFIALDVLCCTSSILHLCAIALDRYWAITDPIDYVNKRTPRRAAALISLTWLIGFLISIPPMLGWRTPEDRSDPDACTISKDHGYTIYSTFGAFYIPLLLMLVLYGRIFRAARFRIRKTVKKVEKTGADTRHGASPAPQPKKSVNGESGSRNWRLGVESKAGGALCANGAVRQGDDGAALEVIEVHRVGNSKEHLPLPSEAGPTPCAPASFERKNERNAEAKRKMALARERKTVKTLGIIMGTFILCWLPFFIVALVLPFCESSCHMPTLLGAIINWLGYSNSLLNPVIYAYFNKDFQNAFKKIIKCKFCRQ

5-HT1D = molecular target: T2, 5-HT1D (Rattus norvegicus, UniProt P28565); assay: radioligand competition binding, [3H]serotonin
T2 construct: Eurofins

5-HT3 = molecular target: T3, 5-HT3 (Homo sapiens, UniProt P46098); assay: radioligand competition binding, [3H]BRL 43694; conditions: read-out: % inhibition of the specific radioligand binding
T3 construct: Eurofins

5-HT5a = molecular target: T4, 5-HT5a (Homo sapiens, UniProt P47898); assay: radioligand competition binding, [3H]LSD; conditions: read-out: % inhibition of the specific radioligand binding
T4 construct: Eurofins

[1] = molecular target: T5, α2A (adrenergic receptor) (Homo sapiens, UniProt P08913); assay: radioligand competition binding, [3H]RX 821002
T5 construct: Eurofins
T5 sequence (P08913 1-465): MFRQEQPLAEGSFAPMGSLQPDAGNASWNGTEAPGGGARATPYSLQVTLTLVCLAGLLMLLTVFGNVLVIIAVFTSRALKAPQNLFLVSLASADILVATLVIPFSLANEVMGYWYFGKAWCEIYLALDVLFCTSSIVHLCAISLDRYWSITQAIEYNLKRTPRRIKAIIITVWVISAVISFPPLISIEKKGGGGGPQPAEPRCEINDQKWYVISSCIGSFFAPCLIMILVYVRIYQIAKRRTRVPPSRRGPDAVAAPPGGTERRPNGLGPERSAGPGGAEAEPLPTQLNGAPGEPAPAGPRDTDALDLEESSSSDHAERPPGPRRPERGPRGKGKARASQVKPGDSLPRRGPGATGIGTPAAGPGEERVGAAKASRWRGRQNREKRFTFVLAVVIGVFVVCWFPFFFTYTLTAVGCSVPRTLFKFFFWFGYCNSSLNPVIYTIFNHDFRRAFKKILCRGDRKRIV

β1 (adrenergic receptor) = molecular target: T6, β1 (adrenergic receptor) (Homo sapiens, UniProt P08588); assay: radioligand competition binding, [3H](-)CGP 12177
T6 construct: Eurofins

[2] = molecular target: T7, D4.4 (dopaminergic receptor) (Homo sapiens, UniProt P21917); assay: radioligand competition binding, [3H]methyl-spiperone; conditions: read-out: % inhibition of the specific radioligand binding
T7 construct: Eurofins

[3] = molecular target: T8, H3 (histaminergic receptor) (Homo sapiens, UniProt Q9Y5N1); assay: radioligand competition binding, [3H]N-α-methyl-histamine
T8 construct: Eurofins

M5 (muscarinic receptor) = molecular target: T9, M5 (muscarinic receptor) (Homo sapiens, UniProt P08912); assay: radioligand competition binding, [3H]4-DAMP
T9 construct: Eurofins
T9 sequence (P08912 1-532): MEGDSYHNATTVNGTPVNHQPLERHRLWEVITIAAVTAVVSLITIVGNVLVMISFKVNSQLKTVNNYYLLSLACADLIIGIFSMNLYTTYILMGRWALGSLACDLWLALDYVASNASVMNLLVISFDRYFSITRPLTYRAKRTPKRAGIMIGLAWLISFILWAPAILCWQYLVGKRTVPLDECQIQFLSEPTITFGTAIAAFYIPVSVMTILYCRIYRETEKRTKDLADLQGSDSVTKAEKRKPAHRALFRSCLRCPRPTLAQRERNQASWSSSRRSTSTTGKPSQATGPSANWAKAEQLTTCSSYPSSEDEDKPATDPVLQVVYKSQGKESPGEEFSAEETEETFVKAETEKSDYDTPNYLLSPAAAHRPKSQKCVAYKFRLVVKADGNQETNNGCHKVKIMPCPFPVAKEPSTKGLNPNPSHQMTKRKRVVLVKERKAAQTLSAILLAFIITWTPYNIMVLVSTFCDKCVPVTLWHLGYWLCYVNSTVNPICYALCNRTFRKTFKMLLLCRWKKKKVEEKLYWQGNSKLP

SERT = molecular target: T10, SERT (Homo sapiens, UniProt P31645); assay: radioligand competition binding, [3H]imipramine
T10 construct: Eurofins

NET = molecular target: T11, NET (Homo sapiens, UniProt P23975); assay: radioligand competition binding, [3H]nisoxetine
T11 construct: Eurofins

DAT = molecular target: T12, DAT (Homo sapiens, UniProt Q01959); assay: radioligand competition binding, [3H]BTCP
T12 construct: Eurofins

Adenosine receptor A1 = molecular target: T13, Adenosine receptor A1 (Homo sapiens, UniProt P30542); assay: radioligand competition binding, [3H]DPCPX
T13 construct: Eurofins

Adrenergic receptor α1B = molecular target: T14, Adrenergic receptor α1B (Homo sapiens, UniProt P35368); assay: radioligand competition binding, [3H]Prazosin
T14 construct: Eurofins

Cannabinoid receptor CB1 = molecular target: T15, Cannabinoid receptor CB1 (Homo sapiens, UniProt P21554); assay: radioligand competition binding, [3H]SR141716A
T15 construct: Eurofins

Melatonin receptor MT1 = molecular target: T16, Melatonin receptor MT1 (Homo sapiens, UniProt P48039); assay: radioligand competition binding, [125I]2-Iodomelatonin
T16 construct: Eurofins

[4] = molecular target: T17, Nicotinic acetylcholine receptor (muscle-type) (Homo sapiens, UniProt P02708+P07510+Q07001); assay: radioligand competition binding, [125I]α-Bungarotoxin
T17 construct: Eurofins

[5] = molecular target: T18, Platelet Activating Factor Receptor (Homo sapiens, UniProt P25105); assay: radioligand competition binding, [3H]PAF
T18 construct: Eurofins

[6] = molecular target: Ca2+ Channel L-Type, (Benzothiazepine) (Rattus norvegicus, UniProt P22002); assay: biochemical; conditions: read-out: % inhibition of the specific radioligand binding
[7] = molecular target: NMDA receptor (Glutamate) (Rattus norvegicus, UniProt Q00959); assay: biochemical; conditions: read-out: % inhibition of the specific radioligand binding
[8] = estimated from the % inhibition data
[9] = read-out: % inhibition of the specific radioligand binding

Structure (SMILES): COc1cc(C(F)(F)F)c(OC)cc1[C@@H]1CCCNC1 [(S)-11, 3-(2,5-Dimethoxy-4-(trifluoromethyl)phenyl)piperidine Hydrochloride]
- IC50 (5-HT1A; [8]): 0.1 to 1 µM
- inhibition at 0.1 µM (5-HT1A; [9]): 20%
- inhibition at 1 µM (5-HT1A; [9]): 64%
- inhibition at 10 µM (5-HT1A; [9]): 90%
- IC50 (5-HT1D; [8]): 0.1 to 1 µM
- inhibition at 0.1 µM (5-HT1D; [9]): 18%
- inhibition at 1 µM (5-HT1D; [9]): 64%
- inhibition at 10 µM (5-HT1D; [9]): 93%
- inhibition at 10 µM (5-HT3): 6%
- inhibition at 10 µM (5-HT5a): 4%
- IC50 [1, 8]: > 10 µM
- inhibition at 1 µM [1, 9]: 1%
- inhibition at 10 µM [1, 9]: 34%
- IC50 (β1 (adrenergic receptor); [8]): > 10 µM
- inhibition at 10 µM (β1 (adrenergic receptor); [9]): 38%
- inhibition at 10 µM [2]: 9%
- IC50 [3, 8]: > 10 µM
- inhibition at 10 µM [3, 9]: 11%
- IC50 (M5 (muscarinic receptor); [8]): ~1 µM
- inhibition at 0.1 µM (M5 (muscarinic receptor); [9]): 9%
- inhibition at 1 µM (M5 (muscarinic receptor); [9]): 57%
- inhibition at 10 µM (M5 (muscarinic receptor); [9]): 92%
- IC50 (SERT; [8]): > 10 µM
- inhibition at 10 µM (SERT; [9]): 22%
- IC50 (NET; [8]): > 10 µM
- inhibition at 10 µM (NET; [9]): -4%
- IC50 (DAT; [8]): > 10 µM
- inhibition at 10 µM (DAT; [9]): 12%
- IC50 (Adenosine receptor A1; [8]): > 10 µM
- inhibition at 10 µM (Adenosine receptor A1; [9]): 4%
- IC50 (Adrenergic receptor α1B; [8]): > 10 µM
- inhibition at 10 µM (Adrenergic receptor α1B; [9]): 33%
- IC50 (Cannabinoid receptor CB1; [8]): > 10 µM
- inhibition at 10 µM (Cannabinoid receptor CB1; [9]): 14%
- IC50 (Melatonin receptor MT1; [8]): > 10 µM
- inhibition at 10 µM (Melatonin receptor MT1; [9]): 7%
- IC50 [4]: > 10 µM
- inhibition at 10 µM [4, 9]: 3%
- IC50 [5, 8]: > 10 µM
- inhibition at 10 µM [5, 9]: -11%
- inhibition at 10 µM [6]: 66%
- inhibition at 10 µM [7]: -8%
